Biological target: T1, Monoamineoxidase B type human-derived enzyme (Homo sapiens, UniProt P27338)
T1 sequence (P27338 1-520): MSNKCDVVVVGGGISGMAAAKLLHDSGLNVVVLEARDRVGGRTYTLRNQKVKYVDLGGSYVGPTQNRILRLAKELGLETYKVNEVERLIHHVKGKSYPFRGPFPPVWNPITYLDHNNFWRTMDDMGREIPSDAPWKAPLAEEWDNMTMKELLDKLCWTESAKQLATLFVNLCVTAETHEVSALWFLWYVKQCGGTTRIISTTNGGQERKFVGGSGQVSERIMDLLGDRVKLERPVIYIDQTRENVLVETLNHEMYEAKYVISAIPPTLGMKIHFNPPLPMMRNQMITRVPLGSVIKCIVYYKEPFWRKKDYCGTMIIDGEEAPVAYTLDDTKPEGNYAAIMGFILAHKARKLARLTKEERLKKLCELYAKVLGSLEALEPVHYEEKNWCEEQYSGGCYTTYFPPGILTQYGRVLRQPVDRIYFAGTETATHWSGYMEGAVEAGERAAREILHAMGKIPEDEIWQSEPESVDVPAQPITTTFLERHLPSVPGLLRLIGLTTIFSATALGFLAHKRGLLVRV
Assay: Inhibitory effects on the activity of MAO-B (Amplex Red fluorescence, benzylamine substrate)
Assay type: biochemical
Conditions: read-out: Inhibitory effects (%) on the activity of MAO-B
Method: Monoamineoxidase A or B type human-derived enzyme (5 mg/ml) was each diluted with 0.05 M sodium phosphate buffer (pH 7.4) to yield a dilution of 1:200, and then 100 μl of an enzyme buffer containing 2 μl of a compound 1 solution at the corresponding concentration was placed in a test plate (flat-bottom) and incubated for 30 minutes.
100 μl of a working buffer containing 400 μM of Amplex Red reagent, 2 U/ml horseradish peroxidase, and 2 mM substrate (tyramine for MAO-A and benzylamine for MAO-B) in 0.05 M sodium phosphate buffer (pH 7.4) was mixed with a pre-incubated enzyme buffer at 1:1 and measured using fluorescence (EX: 563 nm & EM: 587 nm) for 30 minutes.

Row | Compound | inhibition at 0.01 µM
1 | NC(=O)OCc1nc(-c2ccc(OCc3ccccc3)cc2)ns1 [Example 4, carbamic acid 3-(4-benzyloxy-phenyl)-[1,2,4]thiadiazol-5-ylmethyl ester] | 92%
2 | CCCOc1ccc(-c2cc(COC(N)=O)on2)cc1 [Example 42, carbamic acid 3-(4-propoxy-phenyl)-isoxazol-5-ylmethyl ester] | 85.3%
3 | CCCCCOc1ccc(-c2cc(COC(N)=O)on2)cc1 [Example 44, carbamic acid 3-(4-pentoxy-phenyl)-isoxazol-5-ylmethyl ester] | 74.3%
4 | CCOC(=O)COc1ccc(-c2cc(COC(N)=O)on2)cc1 [Example 47, [4-(5-carbamoyloxymethyl-isoxazol-3-yl)-phenoxy]-acetic acid ethyl ester] | 41.2%
5 | NC(=O)OCCCOc1ccc(-c2cc(COC(N)=O)on2)cc1 [Example 52, carbamic acid 3-[4-(5-carbamoyloxymethyl-isoxazol-3-yl)-phenoxy]-propyl ester] | 26.6%
6 | NC(=O)OCc1cc(-c2ccc(OCCCCO)cc2)no1 [Example 57, carbamic acid 3-[4-(4-hydroxy-butoxy)-phenyl]-isoxazol-5-ylmethyl ester] | 25%
7 | NC(=O)OCc1cc(-c2ccc(OCCCC(F)(F)F)cc2)no1 [Example 59, carbamic acid 3-[4-(4,4,4-trifluoro-butoxy)-phenyl]-isoxazol-5-ylmethyl ester] | 97.4%

Same assay, conditions: treatment concentration 10 nM

Row | Compound | Inhibitory effects (%) on the activity of MAO-B
8 | 3-[4-(3-chloro-benzyloxy)-phenyl]-isoxazol-5-ylmethyl ester [Example 20] | 96.2%
9 | 3-[4-(4-methyl-benzyloxy)-phenyl]-isoxazol-5-ylmethyl ester [Example 28] | 87.4%

Same assay, conditions: treatment concentration 10 nM; read-out: Inhibitory effects (%) on the activity of MAO-B

Row | Compound | inhibition at 0.01 µM
10 | NC(=O)OCc1cc(-c2ccc(OCc3ccccc3)cc2Cl)no1 [Example 5, carbamic acid 3-(4-benzyloxy-2-chloro-phenyl)-isoxazol-5-ylmethyl ester] | 88.3%
11 | NC(=O)OCc1cc(-c2ccc(OCc3ccccc3)c(Cl)c2)no1 [Example 7, carbamic acid 3-(4-benzyloxy-3-chloro-phenyl)-isoxazol-5-ylmethyl ester] | 75.9%
12 | NC(=O)OCc1cc(-c2ccc(OCc3ccccc3)c(F)c2)no1 [Example 8, carbamic acid 3-(4-benzyloxy-3-fluoro-phenyl)-isoxazol-5-ylmethyl ester] | 72.7%
13 | CC(Oc1ccc(-c2cc(COC(N)=O)on2)cc1)c1ccccc1 (stereo not drawn) [Example 10, carbamic acid 3-[4-(1-phenyl-ethoxy)-phenyl]-isoxazol-5-ylmethyl ester] | 98.2%
14 | NC(=O)OCc1cc(-c2ccc(OCc3ccc(F)cc3)cc2)no1 [Example 13, carbamic acid 3-[4-(4-fluoro-benzyloxy)-phenyl]-isoxazol-5-ylmethyl ester] | 102%
15 | NC(=O)OCc1cc(-c2ccc(OCc3cccc(F)c3F)cc2)no1 [Example 15, carbamic acid 3-[4-(2,3-difluoro-benzyloxy)-phenyl]-isoxazol-5-ylmethyl ester] | 96.2%
16 | NC(=O)OCc1cc(-c2ccc(OCc3cc(F)cc(F)c3)cc2)no1 [Example 16, carbamic acid 3-[4-(3,5-difluoro-benzyloxy)-phenyl]-isoxazol-5-ylmethyl ester] | 96.5%

Next, values leading:

Row | inhibition at 0.01 µM | Compound
17 | 96.8% | NC(=O)OCc1cc(-c2ccc(OCc3ccc(F)c(F)c3)cc2)no1 [Example 17, carbamic acid 3-[4-(3,4-difluoro-benzyloxy)-phenyl]-isoxazol-5-ylmethyl ester]
18 | 91.5% | NC(=O)OCc1cc(-c2ccc(OCc3c(F)cc(F)cc3F)cc2)no1 [Example 18, carbamic acid 3-[4-(2,4,6-trifluoro-benzyloxy)-phenyl]-isoxazol-5-ylmethyl ester]
19 | 94.2% | NC(=O)OCc1cc(-c2ccc(OCc3cccc(C(F)(F)F)c3)cc2)no1 [Example 19, carbamic acid 3-[4-(3-trifluoromethyl-benzyloxy)-phenyl]-isoxazol-5-ylmethyl ester]
20 | 92.9% | NC(=O)OCc1cc(-c2ccc(OCc3ccccc3Cl)cc2)no1 [Example 21, carbamic acid 3-[4-(2-chloro-benzyloxy)-phenyl]-isoxazol-5-ylmethyl ester]
21 | 86% | NC(=O)OCc1cc(-c2ccc(OCc3ccc(Cl)cc3)cc2)no1 [Example 22, carbamic acid 3-[4-(4-chloro-benzyloxy)-phenyl]-isoxazol-5-ylmethyl ester]
22 | 92.7% | NC(=O)OCc1cc(-c2ccc(OCc3c(Cl)cccc3Cl)cc2)no1 [Example 23, carbamic acid 3-[4-(2,6-dichlorobenzyloxy)-phenyl]-isoxazol-5-ylmethyl ester]
23 | 83.3% | NC(=O)OCc1cc(-c2ccc(OCc3cc(Cl)ccc3Cl)cc2)no1 [Example 24, carbamic acid 3-[4-(2,5-di-chloro-benzyloxy)-phenyl]-isoxazol-5-ylmethyl ester]
24 | 83.2% | NC(=O)OCc1cc(-c2ccc(OCc3cc(F)ccc3Cl)cc2)no1 [Example 25, carbamic acid 3-[4-(2-chloro-5-fluoro-benzyloxy)-phenyl]-isoxazol-5-ylmethyl ester]
25 | 87.3% | NC(=O)OCc1cc(-c2ccc(OCc3cccc([N+](=O)[O-])c3)cc2)no1 [Example 26, carbamic acid 3-[4-(3-nitro-benzyloxy)-phenyl]-isoxazol-5-ylmethyl ester]
26 | 75.2% | COC(=O)c1ccc(COc2ccc(-c3cc(COC(N)=O)on3)cc2)cc1 [Example 27, 4-[4-(5-carbamoyloxymethyl-isoxazol-3-yl)-phenoxymethyl]-benzoic acid methyl ester]
27 | 80.3% | Cc1ccccc1COc1ccc(-c2cc(COC(N)=O)on2)cc1 [Example 29, carbamic acid 3-[4-(2-methyl-benzyloxy)-phenyl]-isoxazol-5-ylmethyl ester]
28 | 90.2% | COc1cccc(COc2ccc(-c3cc(COC(N)=O)on3)cc2)c1 [Example 30, Carbamic acid 3-[4-(3-methoxy-benzyloxy)-phenyl]-isoxazol-5-ylmethyl ester]
29 | 84.4% | CC(C)c1ccc(COc2ccc(-c3cc(COC(N)=O)on3)cc2)cc1 [Example 32, Carbamic acid 3-[4-(4-isopropyl-benzyloxy)-phenyl]-isoxazol-5-ylmethyl ester]
30 | 90.4% | NC(=O)OCc1cc(-c2ccc(OCc3cccc(C=O)c3)cc2)no1 [Example 35, carbamic acid 3-[4-(3-formyl-benzyloxy)-phenyl]-isoxazol-5-ylmethyl ester]
31 | 90.1% | NC(=O)OCc1cc(-c2ccc(OCc3ccc(C=O)cc3)cc2)no1 [Example 36, carbamic acid 3-[4-(4-formyl-benzyloxy)-phenyl]-isoxazol-5-ylmethyl ester]
32 | 32.8% | NC(=O)OCc1cc(-c2ccc(OCc3nc4ccccc4s3)cc2)no1 [Example 64, Carbamic acid 3-[4-(benzothiazol-2-ylmethoxy)-phenyl]-isoxazol-5-ylmethyl ester]

Same assay, conditions: treatment concentration 100 nM

Row | inhibition at 0.1 µM | Compound
33 | 96.2% | NC(=O)OCc1cc(-c2ccc(OCc3cccc(C(F)(F)F)c3)cc2)no1 [Example 31, Carbamic acid 3-[4-(3-trifluoromethyl-benzyloxy)-phenyl]-isoxazol-5-ylmethyl ester]
